Here are results for 13 compounds from US9475816B2, “Substituted-1,4-dihydropyrazolo[4,3-b]indoles” (TAKEDA PHARMACEUTICAL COMPANY LIMITED, priority 2012, dated 2016).

Structures are written as SMILES.

In general, IC50 refers to the concentration that inhibits the measured activity by half.

In assay [1] the target is T1, human MetAP2 enzyme (Homo sapiens, UniProt P50579). The experiment in a line: MetAP2 enzyme assay, MetAP2 enzyme complexed with cobalt ions. To be noted: MetAP2 Co pIC50, 10 μM CoCl2; -log(IC50), IC50 molar.
T1 sequence (P50579 whole entry): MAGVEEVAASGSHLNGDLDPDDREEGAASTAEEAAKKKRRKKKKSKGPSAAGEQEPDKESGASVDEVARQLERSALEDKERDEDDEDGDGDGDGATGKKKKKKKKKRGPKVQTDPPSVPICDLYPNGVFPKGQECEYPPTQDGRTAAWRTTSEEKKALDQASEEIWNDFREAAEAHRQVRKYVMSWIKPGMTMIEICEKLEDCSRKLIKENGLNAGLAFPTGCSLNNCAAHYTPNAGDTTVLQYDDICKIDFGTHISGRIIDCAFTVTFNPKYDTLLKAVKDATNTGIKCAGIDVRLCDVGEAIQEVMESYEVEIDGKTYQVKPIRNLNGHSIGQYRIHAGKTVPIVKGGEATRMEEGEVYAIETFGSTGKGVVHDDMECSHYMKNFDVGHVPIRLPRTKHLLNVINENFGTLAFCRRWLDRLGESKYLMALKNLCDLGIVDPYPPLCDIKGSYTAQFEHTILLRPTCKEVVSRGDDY
For assay [2], the target named is T1, human MetAP2 enzyme. The experiment in a line: MetAP2 enzyme assay, MetAP2 enzyme complexed with manganese ions. The settings on record: MetAP2 Mn pIC50, 10 μM MnCl2; -log(IC50), IC50 molar.
Procedure: DNA encoding the full-length sequence of human MetAP2 enzyme is amplified by PCR and cloned into a pFastBac expression vector (Invitrogen). Recombinant baculovirus incorporating the MetAP2 construct is generated by transposition using the Bac-to-Bac system (Invitrogen). The expression of recombinant protein is carried out by infection of Spodoptera frugiperda Sf9 cells (Invitrogen) in 5L Wave Bioreactors (Wave Biotech). Recombinant protein is isolated from cellular extracts by binding to an SP Hitrap Fast Flow or SP Sepharose (Sigma) column, and the protein is eluted using a NaCl gradient. Partially purified extracts of MetAP2 are further purified by an AKTA FPLC over a Superdex-200 column (GE). The purity of MetAP2 protein is determined on denaturing SDS-PAGE gel.
The results for each well are expressed as percent inhibition and calculated using the equation:

On to `Cc1cc(C(=O)N(C)C)ncc1-n1c2ccc(F)cc2c2[nH]ncc21` [Example 108, 5-(7-Fluoropyrazolo[4,3-b]indol-4(1H)-yl)-N,N,4-trimethylpicolinamide], for which the IC50 against human MetAP2 enzyme [1] was 20 nM; against human MetAP2 enzyme [2], 25.1 nM.
For `Cc1cc(C(=O)N2CC[C@@H](O)C2)ncc1-n1c2ccc(F)cc2c2[nH]ncc21` [Example 109, (5-(7-Fluoropyrazolo[4,3-b]indol-4(1H)-yl)-4-methylpyridin-2-yl)((R)-3-hydroxypyrrolidin-1-yl)methanone], in that order: 25.1 nM and 25.1 nM.
As to `Cc1nc(N2CC[C@H](C(=O)N3CC(O)C3)C2)ncc1-n1c2ccc(F)cc2c2[nH]ncc21` [Example 111, ((3S)-1-(5-(7-Fluoropyrazolo[4,3-b]indol-4(1H)-yl)-4-methylpyrimidin-2-yl)pyrrolidin-3-yl)(3-hydroxyazetidin-1-yl)methanone], the IC50 was 7.94 nM on human MetAP2 enzyme [1] and 12.6 nM on human MetAP2 enzyme [2].
As for `CCN1CCn2ncc(-n3c4ccc(F)cc4c4[nH]ncc43)c2C1` [Example 112, 4-(5-Ethyl-4,5,6,7-tetrahydropyrazolo[1,5-a]pyrazin-3-yl)-7-fluoro-1,4-dihydropyrazolo[4,3-b]indole], the IC50 is 12.6 nM against human MetAP2 enzyme [1] and 20 nM against human MetAP2 enzyme [2].
For `CNC(=O)c1cc(C)c(-n2c3ccc(F)cc3c3[nH]ncc32)cn1` [Example 113, 5-(7-Fluoropyrazolo[4,3-b]indol-4(1H)-yl)-N,4-dimethylpicolinamide], in that order: 12.6 nM and 10 nM.
In the case of `Cc1cc(C(=O)N2CC(N)C2)ncc1-n1c2ccc(F)cc2c2[nH]ncc21` [Example 114, (3-Aminoazetidin-1-yl)(5-(7-fluoropyrazolo[4,3-b]indol-4(1H)-yl)-4-methylpyridin-2-yl)methanone], the IC50 against human MetAP2 enzyme [1] was 25.1 nM; against human MetAP2 enzyme [2], 12.6 nM.
For `Cc1cc(C(=O)NCCCO)ncc1-n1c2ccc(F)cc2c2[nH]ncc21` [Example 115, 5-(7-Fluoropyrazolo[4,3-b]indol-4(1H)-yl)-N-(3-hydroxypropyl)-4-methylpicolinamide], in that order: 12.6 nM and 10 nM.
For `Cc1nc2c(cc1-n1c3ccc(F)cc3c3[nH]ncc31)ncn2CCS(C)(=O)=O` [Example 116, 7-Fluoro-4-(5-methyl-3-(2-(methylsulfonyl)ethyl)-3H-imidazo[4,5-b]pyridin-6-yl)-1,4-dihydropyrazolo[4,3-b]indole] the same measures were 12.6 nM and 3.98 nM.
On to `Cc1nc(C(=O)N2CC(N)C2)ccc1-n1c2ccc(F)cc2c2[nH]ncc21` [Example 117, (3-Aminoazetidin-1-yl)(5-(7-fluoropyrazolo[4,3-b]indol-4(1H)-yl)-6-methylpyridin-2-yl)methanone], for which the figures for the IC50 against human MetAP2 enzyme [1] and against human MetAP2 enzyme [2] were 20 nM and 7.94 nM, respectively.
Regarding `Cc1nc(C(=O)NCCCO)ccc1-n1c2ccc(F)cc2c2[nH]ncc21` [Example 118, 5-(7-Fluoropyrazolo[4,3-b]indol-4(1H)-yl)-N-(3-hydroxypropyl)-6-methylpicolinamide], the IC50 is 25.1 nM against human MetAP2 enzyme [1] and 10 nM on human MetAP2 enzyme [2].
For `CNC(=O)c1ccc(-n2c3ccc(F)cc3c3[nH]ncc32)c(C)n1` [Example 119, 5-(7-Fluoropyrazolo[4,3-b]indol-4(1H)-yl)-N,6-dimethylpicolinamide], in that order: 20 nM and 10 nM.
Consider `Cc1nc(C(=O)N(C)CCO)ccc1-n1c2ccc(F)cc2c2[nH]ncc21` [Example 120, 5-(7-Fluoropyrazolo[4,3-b]indol-4(1H)-yl)-N-(2-hydroxyethyl)-N,6-dimethylpicolinamide], for which the IC50 against human MetAP2 enzyme [1] and at human MetAP2 enzyme [2] was 15.8 nM throughout.
For `Cc1nc(C(=O)N(C)CC#N)ccc1-n1c2ccc(F)cc2c2[nH]ncc21` [Example 121, N-(Cyanomethyl)-5-(7-fluoropyrazolo[4,3-b]indol-4(1H)-yl)-N,6-dimethylpicolinamide], the IC50 against human MetAP2 enzyme [1] is 20 nM; against human MetAP2 enzyme [2] it was 15.8 nM.
